Laboratory results: patent publication US20210032291A1, “Compstatin Analogs With Improved Pharmacokinetic Properties” (The Trustees of the University of Pennsylvania, priority 2011, published 2021)
Converted amounts (≈) assume the structure as drawn. Like-named read-outs stand apart in the source and are kept apart here. Bridge positions count the residues as written; N and C are the ends. Square brackets hold non-standard residues; d marks the D form. Peptide text beside a SMILES is read from it. Trp(1-Me) = Cn1cc(C[C@H](N)C(=O)O)c2ccccc21; NMeI = CC[C@H](C)[C@H](NC)C(=O)O; Sar = CNCC(=O)O

Tests used:
C3b [1] = target: T1, C3b (Homo sapiens, UniProt P01024); test: SPR kinetic analysis of binding to immobilized C3b (Biacore, single cycle kinetics); conditions: for ka: association rate / Kd / koff: Table 1, N-terminal analogs; for Kd: read-out: KD: binding constant from SPR; for koff: read-out: kd: dissociation rate
T1 construct: Biotinylated C3b was captured site-specifically on a streptavidin chip
Protocol: SPR analysis. The interaction of the compstatin analogs with C3b was characterized using a Biacore 3000 instrument (GE Healthcare, Corp., Piscataway, N.J.). The running buffer was PBS, pH 7.4 (10 mM sodium phosphate, 150 mM NaCl) with 0.005% Tween-20. Biotinylated C3b was captured site-specifically on a streptavidin chip at about 3000 and 5000 RU density; two untreated flow cells were used as reference surface. For kinetic analysis, sets of five increasing concentrations of a particular compound were injected over the chip surface one after the other in a single cycle. […] Processed biosensor data were globally fitted to a 1:1 Langmuir binding model (kindly provided by GE Helthcare), and the equilibrium dissociation constant (KD) was calculated from the equation KD=kd/ka. Each assay was performed at least twice.

[2] = test system: classical pathway of complement; test: ELISA inhibition of classical pathway complement activation; assay type: biochemical; conditions: read-out: IC50, peptide concentration to reach 50% inhibition of classical pathway complement activation; Table 1
Protocol: Inhibition of complement activation. The ability of the compstatin analogs to inhibit the activation of the classical pathway of complement was assessed by ELISA as described elsewhere (Katragadda et al., 2006, supra; Mallik et al., 2005, supra). The percent inhibition was plotted against the peptide concentration, and the resulting data set was fitted to the logistic dose-response function using Origin 8.0 software. IC50 values were obtained from the fitted parameters that produced the lowest χ2 value. Each analog was assayed at least three times.

[3] = Solubility in WFI and DPBS; UPLC C18 retention time as hydrophobicity; conditions: for solubility at 5 min: pH 7.4; for Hydrophobicity Retention Time: UPLC analysis on a C18 column
Protocol: Approximately 5 mg of each peptide (acetate form) was weighed out into separate LoBind Eppendorf tubes and 50 μL water for injection (WFI) was added to each tube. Each sample was centrifuged at 13000 rpm for 2 min and diluted for measuring the optical density (OD) at 280 nm using a NanoDrop 2000 spectrophotometer (ThermoScientific, Wilmington, Del.). Each concentrated sample was diluted 1:20 into Dulbecco's phosphate buffered saline (DPBS, without potassium and calcium; Invitrogen, Carlsbad, Calif.). The samples were monitored for precipitation, and each sample was vortexed for 5 min and centrifuged at 13000 rpm for 2 min. The OD of each DPBS supernatant was measured to determine peptide concentration at saturation.
In addition, the ultra performance liquid chromatography (UPLC) retention time of these peptides on a C18 column was measured to reflect their apparent relative hydrophobicity (Table 3).

C3b [4] = target: T1, C3b; conditions: value from previous publication (WO2010/127336), cited from earlier work
[5] = Stability in human plasma at 37° C. (SPE, UPLC-MS); conditions: fresh human plasma
Protocol: Plasma stability. Fresh human plasma containing lepirudin (3.75 units/ml) was incubated at 37° C. with Cp30 (SEQ ID NO:7), Cp40 (SEQ ID NO:18) or control peptide 2B at a final concentration of 20 μM each. Samples of 100 μL were taken for solid phase extraction. A 96-well plate HLB Oasis 30 μm 10 mg (Waters, Milford, Mass.) was employed for extraction. The SPE material was conditioned by addition of 500 μL each of methanol and ACN followed by addition of 500 μL of milli-Q water. Sample was diluted 1:1 with 4% H3PO4. After loading the sample, washing was carried out twice with 500 μL of 10% ACN in 0.1% formic acid. Sample was eluted with 200 μL of 65% ACN in 0.1% formic acid and collected in the Eppendorf LoBind collection plate. Sample for UPLC-MS was diluted 1:10 in milli-Q water with 0.1% formic acid. Cp20 (SEQ ID NO:3) was spiked in each sample before SPE as an internal standard.
UPLC-MS analysis. UPLC-MS analysis was performed on a SYNAPT HDMS (Waters, Milford, Mass.) equipped with an ESI source controlled by MassLynx 4.1 software (Waters). Each sample was injected in quadruplicates. An online ACQUITY UPLC (Waters) system was used for peptide separation by reversed-phase liquid chromatography. The capillary voltage was 3.2 kV, the cone voltage was 30 V and the source temperature was 120° C. [Glu1]-fibrinogen peptide was used for lock-mass correction with a sampling rate of 30 s. […]

[6] = Plasma levels and half-life after i.v. injection in cynomolgus monkeys; conditions: 2 mg/kg i.v., terminal log-linear portion (1-24 h)
Protocol: Primate studies and sample collection. Evaluation of plasma half-life and generation of major metabolites was performed at the Simian Conservation Breeding and Research Center (SICONBREC, Makati City, Philippines) in cynomolgus monkeys (Macaca fascicularis). […] Blood samples (1-2 mL) were collected immediately before and at various time points after compound injection (2, 5 and 30 min; 1, 2, 4, 6, and 24 hours) in EDTA-coated Vacutainer tubes to prevent coagulation and complement activation, and centrifuged at ˜800×g for 10 min to obtain plasma. Plasma samples were immediately frozen and stored for further analysis. All NHP studies were performed in accordance with animal welfare laws and regulations.
Analysis of plasma samples. Prior to analysis by UPLC-MS, compstatin analogs in the plasma samples were extracted by solid phase extraction (SPE) in a 96-well plate format (HLB Oasis 30 μm, 10 mg; Waters, Milford, Mass.). […] Eluted peptides were directly analyzed by HDMS; the ESI source capillary voltage was set to 3.2 kV, the cone voltage to 30 V and the source temperature to 120° C. […]
Determination of plasma half-life. […] All calibration samples were subjected to SPE and measured using UPLC-HDMS as described above. […] For the pharmacokinetic analysis, the plasma concentration (Cp) at each time point was calculated from the extracted peak area of each peptide using the corresponding standard curve.

C3 = target: T2, C3 (Homo sapiens, UniProt P01024); test: Plasma protein binding in human plasma (PEG precipitation, Mono Q FPLC, UPLC-MS); assay type: in vitro ADME; conditions: 20 μM peptide, Mono Q fractions
T2 construct: from tissue; host or cells: fresh human plasma (lepirudin-anticoagulated)
Protocol: Plasma protein binding. Cp30 (SEQ ID NO:7) was spiked in 500 μL of fresh human plasma containing lepirudin (3.75 units/nil) so that the final peptide concentration was 20 μM (C3: 1.2 mg/mL, 6.4 μm). A control sample was prepared in the same way using Cp30 (SEQ ID NO:7) and milli-Q water to determine the area of peptide in UPLC-MS at 1 μM. The plasma sample was equilibrated at room temperature for 10 min. Then, 500 μL of 30% PEG in milli-Q water (MW3350) was slowly added to the plasma sample while mixing. The mixture was centrifuged at 14000 rpm for 10 min to separate the supernatant. The pellet was dissolved in 1000 μL of FPLC buffer A and separated by FPLC using Mono Q 5/5 column and fractions was collected at 1 mL per tube. 0.5 mL of each fraction was mixed with same volume off 4% H3PO4 for SPE and UPLC-MS analysis.
UPLC-MS analysis. […] Each sample was injected in quadruplicates. […] The analytical column temperature was held at 40° C.

in vivo = test: in vivo; set-up: species or system baboons (P. Anubis); conditions: baboon (P. Anubis), iv, 10 mg
Protocol: Juvenile baboons (P. Anubis, Baboon Research Resources, University of Oklahoma) weighing 5-8 kg were used. Two baboons were used for the study, one for each compound. Each animal received a bolus dose of peptide (10 mg) by injection through the peripheral vein. Blood samples for the LC-MS/MS assay were collected in 1-ml plastic tubes containing […] lepirudin, and centrifuged at 2000 g for 20 min at 4° C. for plasma separation. Plasma samples were stored at −70° C. Blood samples were collected at pre-determined time intervals after injection of Cp30 (SEQ ID NO:7) or the Cp30 (SEQ ID NO:7)-ABM2 conjugate. Samples were treated with SPE and analyzed using LC-MS/MS. Calibration curves were created using standard peptides at various concentrations in plasma to determine peptide concentration in each sample.
Extraction of compstatin analogs from plasma samples by SPE. […] Samples were diluted with 4% H3PO4. After loading a sample, washing was carried out with 500 μL of water and 10% ACN with 0.1% formic acid. […] Samples for LC-MS were diluted 1:2 to 1:11 in milli-Q water with 10% ACN with 0.1% formic acid.
LC-MS/MS analysis. […] Each sample was injected in triplicate. […] The analytical column temperature was held at 40° C. Peptides were separated at flow rate 0.15 mL/min. The gradient was linear 15-55% B (0.1% formic acid in acetonitrile) over 7 min.

[7] = Dulbecco's phosphate buffered saline

T2 sequence (P01024 23-1663): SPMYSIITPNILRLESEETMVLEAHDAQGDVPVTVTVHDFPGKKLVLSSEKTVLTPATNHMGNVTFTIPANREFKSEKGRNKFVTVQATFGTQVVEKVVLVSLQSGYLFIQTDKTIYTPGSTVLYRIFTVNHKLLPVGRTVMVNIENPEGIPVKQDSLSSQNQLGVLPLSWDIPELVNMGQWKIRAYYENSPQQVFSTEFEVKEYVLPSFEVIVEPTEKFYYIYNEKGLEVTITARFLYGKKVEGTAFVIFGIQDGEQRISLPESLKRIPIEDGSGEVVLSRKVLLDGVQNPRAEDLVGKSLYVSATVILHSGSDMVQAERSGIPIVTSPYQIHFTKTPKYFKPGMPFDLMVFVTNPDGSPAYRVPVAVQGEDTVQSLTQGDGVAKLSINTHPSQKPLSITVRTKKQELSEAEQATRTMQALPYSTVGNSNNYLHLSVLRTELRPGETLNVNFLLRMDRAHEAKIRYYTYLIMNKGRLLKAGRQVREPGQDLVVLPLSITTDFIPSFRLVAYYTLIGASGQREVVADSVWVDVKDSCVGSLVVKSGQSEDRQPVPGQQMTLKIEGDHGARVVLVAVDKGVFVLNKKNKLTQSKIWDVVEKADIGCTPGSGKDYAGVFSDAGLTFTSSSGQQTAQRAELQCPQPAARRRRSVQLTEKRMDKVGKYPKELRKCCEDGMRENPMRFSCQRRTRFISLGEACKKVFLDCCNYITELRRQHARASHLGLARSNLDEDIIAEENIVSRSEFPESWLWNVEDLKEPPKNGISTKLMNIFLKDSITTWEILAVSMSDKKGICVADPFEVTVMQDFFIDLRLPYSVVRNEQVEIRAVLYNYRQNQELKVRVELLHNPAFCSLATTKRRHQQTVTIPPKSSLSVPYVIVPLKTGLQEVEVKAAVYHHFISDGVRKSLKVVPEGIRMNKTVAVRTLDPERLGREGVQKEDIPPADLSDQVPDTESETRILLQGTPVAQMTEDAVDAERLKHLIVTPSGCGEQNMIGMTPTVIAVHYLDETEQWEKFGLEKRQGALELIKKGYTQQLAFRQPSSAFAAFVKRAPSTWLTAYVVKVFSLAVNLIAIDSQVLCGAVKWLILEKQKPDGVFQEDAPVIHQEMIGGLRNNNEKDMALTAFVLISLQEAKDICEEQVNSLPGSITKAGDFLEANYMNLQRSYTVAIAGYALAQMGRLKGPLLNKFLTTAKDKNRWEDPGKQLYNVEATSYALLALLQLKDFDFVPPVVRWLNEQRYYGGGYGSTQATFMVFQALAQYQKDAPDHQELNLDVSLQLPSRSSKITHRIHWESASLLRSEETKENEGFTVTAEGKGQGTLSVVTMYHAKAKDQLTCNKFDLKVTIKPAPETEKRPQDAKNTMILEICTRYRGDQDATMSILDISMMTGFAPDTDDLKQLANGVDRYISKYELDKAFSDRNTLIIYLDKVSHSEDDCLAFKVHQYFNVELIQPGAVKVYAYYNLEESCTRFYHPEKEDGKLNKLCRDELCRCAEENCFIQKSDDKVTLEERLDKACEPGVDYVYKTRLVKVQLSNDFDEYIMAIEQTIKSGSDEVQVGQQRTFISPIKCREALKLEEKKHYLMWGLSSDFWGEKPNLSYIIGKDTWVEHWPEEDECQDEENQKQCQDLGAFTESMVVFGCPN
T1 sequence (P01024 23-667 limits assumed): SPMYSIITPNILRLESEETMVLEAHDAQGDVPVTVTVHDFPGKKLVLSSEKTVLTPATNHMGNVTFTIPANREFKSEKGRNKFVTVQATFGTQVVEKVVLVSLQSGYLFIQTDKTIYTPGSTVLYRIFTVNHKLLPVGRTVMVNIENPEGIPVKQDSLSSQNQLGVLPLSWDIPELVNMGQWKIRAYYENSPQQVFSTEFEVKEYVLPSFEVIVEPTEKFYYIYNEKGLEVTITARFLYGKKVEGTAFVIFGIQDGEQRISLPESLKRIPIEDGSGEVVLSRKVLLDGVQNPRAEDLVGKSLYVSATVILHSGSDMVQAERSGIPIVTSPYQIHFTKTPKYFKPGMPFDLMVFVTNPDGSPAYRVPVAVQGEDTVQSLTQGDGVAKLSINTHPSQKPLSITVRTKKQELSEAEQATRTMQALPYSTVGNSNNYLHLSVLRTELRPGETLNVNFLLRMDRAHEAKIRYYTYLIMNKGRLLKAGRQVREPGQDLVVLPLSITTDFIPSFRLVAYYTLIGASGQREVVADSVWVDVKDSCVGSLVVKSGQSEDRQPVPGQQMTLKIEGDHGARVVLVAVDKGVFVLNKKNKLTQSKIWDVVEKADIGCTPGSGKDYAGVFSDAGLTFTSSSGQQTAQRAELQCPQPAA
T1 sequence (P01024 749-1663 partner limits assumed): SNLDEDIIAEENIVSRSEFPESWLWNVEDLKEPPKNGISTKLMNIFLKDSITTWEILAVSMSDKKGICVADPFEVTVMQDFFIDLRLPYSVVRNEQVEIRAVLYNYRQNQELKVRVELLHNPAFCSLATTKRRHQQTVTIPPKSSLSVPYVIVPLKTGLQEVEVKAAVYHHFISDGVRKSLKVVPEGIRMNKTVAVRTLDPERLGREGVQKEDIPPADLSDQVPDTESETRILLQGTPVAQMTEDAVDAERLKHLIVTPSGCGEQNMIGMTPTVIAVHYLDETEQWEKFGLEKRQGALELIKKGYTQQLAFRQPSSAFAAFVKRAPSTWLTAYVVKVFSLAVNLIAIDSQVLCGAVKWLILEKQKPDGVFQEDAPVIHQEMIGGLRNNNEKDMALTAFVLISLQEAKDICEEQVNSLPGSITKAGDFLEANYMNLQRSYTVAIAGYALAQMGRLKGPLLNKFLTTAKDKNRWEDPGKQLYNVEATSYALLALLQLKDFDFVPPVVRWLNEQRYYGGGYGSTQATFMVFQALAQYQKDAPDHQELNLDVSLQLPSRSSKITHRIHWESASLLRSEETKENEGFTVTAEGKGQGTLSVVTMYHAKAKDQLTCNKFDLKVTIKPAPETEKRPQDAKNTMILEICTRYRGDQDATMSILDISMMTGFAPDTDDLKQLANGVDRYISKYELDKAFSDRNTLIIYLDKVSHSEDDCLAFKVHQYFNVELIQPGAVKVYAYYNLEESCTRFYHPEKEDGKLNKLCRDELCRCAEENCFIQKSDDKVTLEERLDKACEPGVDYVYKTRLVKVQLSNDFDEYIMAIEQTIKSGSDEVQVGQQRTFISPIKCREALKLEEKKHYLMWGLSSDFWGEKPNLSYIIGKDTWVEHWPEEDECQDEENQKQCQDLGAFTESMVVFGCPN

SMILES | ka: association rate (C3b [1]) | Kd (C3b [1]) | koff (C3b [1]) | IC50 [2] | solubility at 5 min [3, 7] | Hydrophobicity Retention Time [3] | further results
CC[C@H](C)[C@H](NC(=O)CN)C(=O)N[C@H]1CSSC[C@@H](C(=O)N(C)[C@H](C(N)=O)[C@@H](C)CC)NC(=O)[C@H](CCCNC(=N)N)NC(=O)[C@H](Cc2c[nH]cn2)NC(=O)[C@H](C)NC(=O)CN(C)C(=O)[C@H](Cc2c[nH]c3ccccc23)NC(=O)[C@H](CC(=O)O)NC(=O)[C@H](CCC(N)=O)NC(=O)[C@H](Cc2cn(C)c3ccccc23)NC(=O)[C@H](C(C)C)NC1=O [peptide 2] (H-GICV[Trp(1-Me)]QDW[Sar]AHRC[NMeI]-NH2; disulfide 3-13) | 1.2 ± 0.3 10^6/Ms | 2.5 ± 0.5 nM | 0.0029 ± 0.0002 s⁻¹ | 113 ± 16 nM |  |  | 
CC[C@H](C)[C@H](NC(C)=O)C(=O)N[C@H]1CSSC[C@@H](C(=O)N[C@H](C(N)=O)[C@@H](C)O)NC(=O)[C@H](CCCNC(=N)N)NC(=O)[C@H](Cc2c[nH]cn2)NC(=O)[C@H](C)NC(=O)CNC(=O)[C@H](Cc2c[nH]c3ccccc23)NC(=O)[C@H](CC(=O)O)NC(=O)[C@H](CCC(N)=O)NC(=O)[C@H](Cc2cn(C)c3ccccc23)NC(=O)[C@H](C(C)C)NC1=O [4(1MeW), reference compound] |  |  |  | 132 ± 7 nM | 3500 µg/mL (≈ 2150 µM) | 5.09 min | 
CC[C@H](C)[C@@H](C(N)=O)N(C)C(=O)[C@@H]1CSSC[C@H](NC(=O)[C@H](Cc2c[nH]c3ccccc23)NC(C)=O)C(=O)N[C@@H](C(C)C)C(=O)N[C@@H](Cc2cn(C)c3ccccc23)C(=O)N[C@@H](CCC(N)=O)C(=O)N[C@@H](CC(=O)O)C(=O)N[C@@H](Cc2c[nH]c3ccccc23)C(=O)N(C)CC(=O)N[C@@H](C)C(=O)N[C@@H](Cc2c[nH]cn2)C(=O)N[C@@H](CCCNC(=N)N)C(=O)N1 [peptide 19] (Ac-WCV[Trp(1-Me)]QDW[Sar]AHRC[NMeI]-NH2; disulfide 2-12) | 3.8 ± 0.3 10^6/Ms | 0.5 nM | 0.0017 ± 0.0003 s⁻¹ |  | < 200 µg/mL |  | solubility ([3]; PBS): < 100 µM
CC[C@H](C)[C@H](NC)C(=O)N[C@H]1CSSC[C@@H](C(=O)N(C)[C@H](C(N)=O)[C@@H](C)CC)NC(=O)[C@H](CCCNC(=N)N)NC(=O)[C@H](Cc2c[nH]cn2)NC(=O)[C@H](C)NC(=O)CN(C)C(=O)[C@H](Cc2c[nH]c3ccccc23)NC(=O)[C@H](CC(=O)O)NC(=O)[C@H](CCC(N)=O)NC(=O)[C@H](Cc2cn(C)c3ccccc23)NC(=O)[C@H](C(C)C)NC1=O [peptide 1] | 1.3 ± 0.3 10^6/Ms | 18.6 ± 3.5 nM | 0.0248 ± 0.0073 s⁻¹ | 180 ± 17 nM |  |  | Binding affinity by SPR, in words (C3b [1]; compared with Cp40 (peptide 14)): high binding affinity
CC[C@H](C)[C@H](NC(C)=O)C(=O)N[C@H]1CSSC[C@@H](C(=O)N(C)[C@H](C(N)=O)[C@@H](C)CC)NC(=O)[C@H](CCCNC(=N)N)NC(=O)[C@H](Cc2c[nH]cn2)NC(=O)[C@H](C)NC(=O)CN(C)C(=O)[C@H](Cc2c[nH]c3ccccc23)NC(=O)[C@H](CC(=O)O)NC(=O)[C@H](CCC(N)=O)NC(=O)[C@H](Cc2cn(C)c3ccccc23)NC(=O)[C@H](C(C)C)NC1=O [Cp20, reference compound] |  |  |  |  |  | 5.33 min | solubility at 5 min ([3]; Dulbecco's phosphate buffered saline (DPBS)): 2700 µg/mL (≈ 1620 µM); Solubility WFI ([3]; water for injection, OD (280 nm) at saturation, acetate form): 13000 µg/mL (≈ 7790 µM); ka: association rate (C3b [4]): 1.9 10^6/Ms; kd: dissociation rate (C3b [4]): 4.0 10^−3/s; Kd (C3b [4]; read-out: KD: binding constant from SPR): 2.4 nM
CC[C@H](C)[C@H](NC(=O)[C@@H](N)Cc1ccc(O)cc1)C(=O)N[C@H]1CSSC[C@@H](C(=O)N(C)[C@H](C(N)=O)[C@@H](C)CC)NC(=O)[C@H](CCCNC(=N)N)NC(=O)[C@H](Cc2c[nH]cn2)NC(=O)[C@H](C)NC(=O)CN(C)C(=O)[C@H](Cc2c[nH]c3ccccc23)NC(=O)[C@H](CC(=O)O)NC(=O)[C@H](CCC(N)=O)NC(=O)[C@H](Cc2cn(C)c3ccccc23)NC(=O)[C@H](C(C)C)NC1=O [peptide 4] | 2.1 ± 0.3 10^6/Ms |  |  | 72 ± 10 nM |  |  | 
CC[C@H](C)[C@H](NC(=O)[C@@H](N)CCCNC(=N)N)C(=O)N[C@H]1CSSC[C@@H](C(=O)N(C)[C@H](C(N)=O)[C@@H](C)CC)NC(=O)[C@H](CCCNC(=N)N)NC(=O)[C@H](Cc2c[nH]cn2)NC(=O)[C@H](C)NC(=O)CN(C)C(=O)[C@H](Cc2c[nH]c3ccccc23)NC(=O)[C@H](CC(=O)O)NC(=O)[C@H](CCC(N)=O)NC(=O)[C@H](Cc2cn(C)c3ccccc23)NC(=O)[C@H](C(C)C)NC1=O [compound 6] (H-RICV[Trp(1-Me)]QDW[Sar]AHRC[NMeI]-NH2; disulfide 3-13) | 1.7 ± 0.2 10^6/Ms | 1.7 ± 0.2 nM | 0.0029 ± 0.0002 s⁻¹ |  |  |  | 
CC[C@H](C)[C@H](NC(=O)CNC)C(=O)N[C@H]1CSSC[C@@H](C(=O)N(C)[C@H](C(N)=O)[C@@H](C)CC)NC(=O)[C@H](CCCNC(=N)N)NC(=O)[C@H](Cc2c[nH]cn2)NC(=O)[C@H](C)NC(=O)CN(C)C(=O)[C@H](Cc2c[nH]c3ccccc23)NC(=O)[C@H](CC(=O)O)NC(=O)[C@H](CCC(N)=O)NC(=O)[C@H](Cc2cn(C)c3ccccc23)NC(=O)[C@H](C(C)C)NC1=O [peptide 3, Sar-Ile-[Cys-Val-Trp(Me)-Gln-Asp-Trp-Sar-Ala-His-Arg-Cys]-mIle-NH2] | 1.9 ± 0.5 10^6/Ms | 1.6 nM | 0.0029 ± 0.0003 s⁻¹ | 82 ± 14 nM | 6900 µg/mL (≈ 4070 µM) | 4.60 min | remaining at 120 h, 20 μM [5]: > 55%; solubility ([3]; water for injection): > 50000 µg/mL; Plasma half-life [6]: 10.1 h; Fraction of peptide co-eluted with C3 (C3): 88.0%; Fraction of peptide co-eluted with C3c (C3): 4.5%; Fraction of peptide located in the flow-through (C3): 7.5%; half-life (in vivo): 5 h
